Results reported in the supplement of paper PMC10307832.

Experiments:
Experiment in all cases: relative viability (nuclei count vs DMSO), 5 days (fraction); higher = more cells survive
A-427 = system: A-427
How it was run: (§1)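 Nuclei were stained with Hoechst during a one-step fixation (final 0.05% Triton X-100, 1% formaldehyde, 1 ug/ml Hoechst) carried out 5 days after dosing, then counted on 4× images. The cells, lung cancer lines in 1536-well plates, had been dosed by pin tool the day after seeding with one drug alone or a fixed anchor-drug dose plus five library-drug doses (not always all listed) in √10 steps. Relative viability is the nuclei count in treated wells divided by that in vehicle wells, and each value is the median of duplicate plates.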

COR-L 105 = system: COR-L 105
How it was run: as §1

ChaGo-K-1 = system: ChaGo-K-1
How it was run: as §1

EKVX = system: EKVX
How it was run: as §1

EMC-BAC-2 = system: EMC-BAC-2
How it was run: as §1

H3255 = system: H3255
How it was run: as §1

HCC-366 = system: HCC-366
How it was run: as §1

LK-2 = system: LK-2
How it was run: as §1

LOU-NH91 = system: LOU-NH91
How it was run: as §1

NCI-H1666 = system: NCI-H1666
How it was run: as §1

NCI-H1734 = system: NCI-H1734
How it was run: as §1

NCI-H1755 = system: NCI-H1755
How it was run: as §1

NCI-H1975 = system: NCI-H1975
How it was run: as §1

NCI-H2170 = system: NCI-H2170
How it was run: as §1

NCI-H23 = system: NCI-H23
How it was run: as §1

NCI-H441 = system: NCI-H441
How it was run: as §1

NCI-H520 = system: NCI-H520
How it was run: as §1

NCI-H596 = system: NCI-H596
How it was run: as §1

PC-3 [JPC-3] = system: PC-3 [JPC-3]
How it was run: as §1

SK-MES-1 = system: SK-MES-1
How it was run: as §1

SW 900 = system: SW 900
How it was run: as §1

CC(=O)O[C@@]12CO[C@@H]1C[C@H](O)[C@@]1(C)C(=O)[C@H](O)C3=C(C)[C@@H](OC(=O)[C@H](O)[C@@H](NC(=O)OC(C)(C)C)c4ccccc4)C[C@@](O)([C@@H](OC(=O)c4ccccc4)[C@H]21)C3(C)C [Docetaxel] + O=C(CCCCCCC(=O)Nc1ccccc1)NO [Vorinostat] (partner 1 µM)
relative viability (A-427; first compound 0.0002 µM): 0.824 | relative viability (A-427; first compound 0.000632 µM): 0.822 | relative viability (A-427; first compound 0.002 µM): 0.621 | relative viability (A-427; first compound 0.006325 µM): 0.36 | relative viability (A-427; first compound 0.02 µM): 0.27 | relative viability (COR-L 105; first compound 0.0002 µM): 0.889 | relative viability (COR-L 105; first compound 0.000632 µM): 0.747 | relative viability (COR-L 105; first compound 0.002 µM): 0.392 | relative viability (COR-L 105; first compound 0.006325 µM): 0.413 | relative viability (COR-L 105; first compound 0.02 µM): 0.368 | relative viability (ChaGo-K-1; first compound 0.0002 µM): 0.733 | relative viability (ChaGo-K-1; first compound 0.000632 µM): 0.591 | relative viability (ChaGo-K-1; first compound 0.002 µM): 0.335 | relative viability (ChaGo-K-1; first compound 0.006325 µM): 0.282 | relative viability (ChaGo-K-1; first compound 0.02 µM): 0.193 | relative viability (EKVX; first compound 0.0002 µM): 0.638 | relative viability (EKVX; first compound 0.000632 µM): 0.6 | relative viability (EKVX; first compound 0.002 µM): 0.428 | relative viability (EKVX; first compound 0.006325 µM): 0.29 | relative viability (EKVX; first compound 0.02 µM): 0.229 | relative viability (EMC-BAC-2; first compound 0.0002 µM): 0.388 | relative viability (EMC-BAC-2; first compound 0.000632 µM): 0.293 | relative viability (EMC-BAC-2; first compound 0.002 µM): 0.262 | relative viability (EMC-BAC-2; first compound 0.006325 µM): 0.224 | relative viability (EMC-BAC-2; first compound 0.02 µM): 0.171 | relative viability (H3255; first compound 0.0002 µM): 0.785 | relative viability (H3255; first compound 0.000632 µM): 0.826 | relative viability (H3255; first compound 0.002 µM): 0.629 | relative viability (H3255; first compound 0.006325 µM): 0.345 | relative viability (H3255; first compound 0.02 µM): 0.346 | relative viability (HCC-366; first compound 0.0002 µM): 0.299 | relative viability (HCC-366; first compound 0.000632 µM): 0.0824 | relative viability (HCC-366; first compound 0.002 µM): 0.0503 | relative viability (HCC-366; first compound 0.006325 µM): 0.0366 | relative viability (HCC-366; first compound 0.02 µM): 0.0211 | relative viability (LK-2; first compound 0.0002 µM): 0.313 | relative viability (LK-2; first compound 0.000632 µM): 0.217 | relative viability (LK-2; first compound 0.002 µM): 0.15 | relative viability (LK-2; first compound 0.006325 µM): 0.183 | relative viability (LK-2; first compound 0.02 µM): 0.152 | relative viability (LOU-NH91; first compound 0.0002 µM): 0.873 | relative viability (LOU-NH91; first compound 0.000632 µM): 0.628 | relative viability (LOU-NH91; first compound 0.002 µM): 0.436 | relative viability (LOU-NH91; first compound 0.006325 µM): 0.397 | relative viability (LOU-NH91; first compound 0.02 µM): 0.347 | relative viability (NCI-H1666; first compound 0.0002 µM): 0.893 | relative viability (NCI-H1666; first compound 0.000632 µM): 0.992 | relative viability (NCI-H1666; first compound 0.002 µM): 0.681 | relative viability (NCI-H1666; first compound 0.006325 µM): 0.706 | relative viability (NCI-H1666; first compound 0.02 µM): 0.47 | relative viability (NCI-H1734; first compound 0.0002 µM): 0.618 | relative viability (NCI-H1734; first compound 0.000632 µM): 0.506 | relative viability (NCI-H1734; first compound 0.002 µM): 0.304 | relative viability (NCI-H1734; first compound 0.006325 µM): 0.328 | relative viability (NCI-H1734; first compound 0.02 µM): 0.207 | relative viability (NCI-H1755; first compound 0.0002 µM): 0.791 | relative viability (NCI-H1755; first compound 0.000632 µM): 0.728 | relative viability (NCI-H1755; first compound 0.002 µM): 0.433 | relative viability (NCI-H1755; first compound 0.006325 µM): 0.479 | relative viability (NCI-H1755; first compound 0.02 µM): 0.373 | relative viability (NCI-H1975; first compound 0.0002 µM): 0.723 | relative viability (NCI-H1975; first compound 0.000632 µM): 0.378 | relative viability (NCI-H1975; first compound 0.002 µM): 0.283 | relative viability (NCI-H1975; first compound 0.006325 µM): 0.232 | relative viability (NCI-H1975; first compound 0.02 µM): 0.161 | relative viability (NCI-H2170; first compound 0.0002 µM): 0.787 | relative viability (NCI-H2170; first compound 0.000632 µM): 0.551 | relative viability (NCI-H2170; first compound 0.002 µM): 0.388 | relative viability (NCI-H2170; first compound 0.006325 µM): 0.162 | relative viability (NCI-H2170; first compound 0.02 µM): 0.136 | relative viability (NCI-H23; first compound 0.0002 µM): 0.55 | relative viability (NCI-H23; first compound 0.000632 µM): 0.305 | relative viability (NCI-H23; first compound 0.002 µM): 0.165 | relative viability (NCI-H23; first compound 0.006325 µM): 0.155 | relative viability (NCI-H23; first compound 0.02 µM): 0.0848 | relative viability (NCI-H441; first compound 0.0002 µM): 0.713 | relative viability (NCI-H441; first compound 0.000632 µM): 0.53 | relative viability (NCI-H441; first compound 0.002 µM): 0.223 | relative viability (NCI-H441; first compound 0.006325 µM): 0.219 | relative viability (NCI-H441; first compound 0.02 µM): 0.165 | relative viability (NCI-H520; first compound 0.0002 µM): 0.714 | relative viability (NCI-H520; first compound 0.000632 µM): 0.463 | relative viability (NCI-H520; first compound 0.002 µM): 0.281 | relative viability (NCI-H520; first compound 0.006325 µM): 0.187 | relative viability (NCI-H520; first compound 0.02 µM): 0.158 | relative viability (NCI-H596; first compound 0.0002 µM): 0.639 | relative viability (NCI-H596; first compound 0.000632 µM): 0.46 | relative viability (NCI-H596; first compound 0.002 µM): 0.393 | relative viability (NCI-H596; first compound 0.006325 µM): 0.307 | relative viability (NCI-H596; first compound 0.02 µM): 0.144 | relative viability (PC-3 [JPC-3]; first compound 0.0002 µM): 0.673 | relative viability (PC-3 [JPC-3]; first compound 0.000632 µM): 0.58 | relative viability (PC-3 [JPC-3]; first compound 0.002 µM): 0.395 | relative viability (PC-3 [JPC-3]; first compound 0.006325 µM): 0.343 | relative viability (PC-3 [JPC-3]; first compound 0.02 µM): 0.21 | relative viability (SK-MES-1; first compound 0.0002 µM): 1.15 | relative viability (SK-MES-1; first compound 0.000632 µM): 0.925 | relative viability (SK-MES-1; first compound 0.002 µM): 0.695 | relative viability (SK-MES-1; first compound 0.006325 µM): 0.267 | relative viability (SK-MES-1; first compound 0.02 µM): 0.212 | relative viability (SW 900; first compound 0.0002 µM): 0.523 | relative viability (SW 900; first compound 0.000632 µM): 0.284 | relative viability (SW 900; first compound 0.002 µM): 0.277 | relative viability (SW 900; first compound 0.006325 µM): 0.203 | relative viability (SW 900; first compound 0.02 µM): 0.235
